From ChEMBL document CHEMBL4041466, “Synthesis and evaluation of new benzodioxole-based dithiocarbamate derivatives as potential anticancer agents and hCA-I and hCA-II inhibitors” (Eur J Med Chem, 2017)
In brackets after ≈: the same amount, converted by molar mass.

Legend:
[1] = tested on: C6; test: Antiproliferative activity against rat C6 cells after 24 hrs by MTT assay; conditions: C6, 24 h
[2] = tested on: A549; test: Antiproliferative activity against human A549 cells after 24 hrs by MTT assay; conditions: A549, 24 h

Row | SMILES | IC50 [1] [µg/mL] | IC50 [2] [µg/mL]
1 | O=C(CSC(=S)NN1CCN(c2ccccc2)CC1)NCc1ccc2c(c1)OCO2 | 163 (≈ 367 µM) | > 1000
2 | CC1CCN(NC(=S)SCC(=O)NCc2ccc3c(c2)OCO3)CC1 | 567 (≈ 1490 µM) | 810 (≈ 2120 µM)
3 | CN1CCN(NC(=S)SCC(=O)NCc2ccc3c(c2)OCO3)CC1 | 167 (≈ 436 µM) | > 1000
4 | O=C(CSC(=S)NN1CCN(c2ncccn2)CC1)NCc1ccc2c(c1)OCO2 | 48.3 (≈ 108 µM) | 833 (≈ 1870 µM)
5 | CCN1CCN(NC(=S)SCC(=O)NCc2ccc3c(c2)OCO3)CC1 | 157 (≈ 395 µM) | 850 (≈ 2140 µM)
6 | O=C(CSC(=S)NN1CCOCC1)NCc1ccc2c(c1)OCO2 | 207 (≈ 559 µM) | 700 (≈ 1890 µM)
7 | COc1ccc(N2CCN(NC(=S)SCC(=O)NCc3ccc4c(c3)OCO4)CC2)cc1 | 58.3 (≈ 123 µM) | > 1000
8 | O=C(CSC(=S)NN1CCCCC1)NCc1ccc2c(c1)OCO2 | 633 (≈ 1720 µM) | 875 (≈ 2380 µM)
9 | O=C(CSC(=S)NN1CCN(c2ccc([N+](=O)[O-])cc2)CC1)NCc1ccc2c(c1)OCO2 | 23.3 (≈ 47.7 µM) | > 1000
10 | O=C(CSC(=S)NN1CCSCC1)NCc1ccc2c(c1)OCO2 | 220 (≈ 571 µM) | > 1000
